Measured values as given in patent US6656905B1, “Cyclic tetrapeptide compound and use thereof” (Fujisawa Pharmaceutical Co., Ltd., priority 1998, dated 2003).

Legend:
[1] = system: murine lymphocyte blastogenesis induced by anti-CD3 antibody (splenic cells of Balb/c mice); assay: Lymphocyte blastogenesis test (MTT dye reduction); assay type: cell-based; details: for Inhibition (%): 72 hours
Procedure: Effect on Lymphocyte Blastogenic Response
The lymphocyte blastogenesis test was performed in microtiter plates with each well containing 1×10^5 splenic cells of Balb/c mice in 0.1 ml RPMI-1640 medium supplemented with 10% fetal bovine serum (FBS), […] 2-mercaptoethanol, penicillin (100 units/ml) and streptomycin (100 μg/ml), to which anti-CD3 antibody (2C11) (1 μg/ml) was added. The cells were incubated at 37° C. in a humidified atmosphere of 5% CO2 for 72 hours. After the culture period, suppressive activities of the test samples in lymphocyte blastogenesis were quantified by an MTT [3-(4,5-dimethylthiazol-2-yl)-2,5-diphenyl-2H-tetrazolium bromide (MTT)] dye reduction assay.
WF27082 B was dissolved in methanol and further diluted in RPMI-1640 medium and added to the culture to give final concentrations of 50 ng/ml or less. FR235220 was dissolved in methanol and further diluted in RPMI-1640 medium and added to the culture to give final concentrations of 500 ng/ml or less. The results are shown in Table 2 and Table 3, respectively.

[2] = system: partially purified human histone deacetylase; assay: Activity of partially purified human histone deacetylase ([3H]acetyl histone assay); assay type: biochemical; details: for Effect on histone deacetylase activity (in words): summary of Table 5
Procedure: Effect on Activity of Partially Purified Human Histone Deacetylase
The partial purification of human histone deacetylase, the preparation of [^3H] acetyl histones, and the assay for histone deacetylase activity were basically performed according to the method as proposed by Yoshida et al. as follows.
Partial Purification of Human Histone Deacetylase—The human histone deacetylase was partially purified from human T cell leukemia Jurkat cells. Jurkat cells (5×10^8cells) were suspended in 40 ml of the HDA buffer consisting of 15 mM potassium phosphate, pH 7.5, 5% glycerol and 0.2 mM EDTA. After homogenization, nuclei were collected by centrifugation (35,000 ×g, 10 min) and homogenized in 20 ml of the same buffer supplemented with 1 M (NH4)2SO4. The viscous homogenate was sonicated and clarified by centrifugation (35,000 ×g, 10 min), and the deacetylase was precipitated by raising the concentration of (NH4)2SO4 to 3.5 M. The precipitated protein was dissolved in 10 ml of the HDA buffer and dialyzed against 4 liters of the same buffer. The dialyzate was then loaded onto a DEAE-cellulose (Whatman DE52) column (25×85 mm) equilibrated with the same buffer and eluted with a linear gradient (0-0.6 M) of NaCl (300 ml). A single peak fraction of histone deacetylase activity was eluted between 0.3 and 0.4 M NaCl.
Preparation of [^3H] Acetyl Histones—To obtain [^3H]acetyl-labeled histones as the substrate for the histone deacetylase assay, 1×10^8 cells of Jurkat in 20 ml of RPMI-1640 medium supplemented with 10% FBS, penicillin (50 units/ml) and streptomycin (50 μg/ml) were incubated with 300 MBq [^3H] sodium acetate in the presence of […] sodium butyrate for 30 min in 5% CO2-95% air atmosphere at 37° C. in a 75 cm2 flask, harvested into a centrifuge tube (50 ml), collected by centrifugation at 1000 rpm for 10 min, and washed once with phosphate-buffered saline. The washed cells were suspended in 15 ml of ice-cold lysis buffer (10 mM Tris-HCl, 50 mM sodium bisulfite, 1% Triton X-100, 10 mM MgCl2, 8.6% sucrose, pH 6.5). After Dounce homogenization (30 stroke), the nuclei were collected by centrifugation at 1000 rpm for 10 min, washed three times with 15 ml of the lysis buffer, and once with 15 ml of ice-old washing buffer (10 mM Tris-HCl, 13 mM EDTA, pH 7.4) successively. The pellet was suspended in 6 ml of ice-cold water using a mixer, and […] of H2SO4 was added to the suspension to give a concentration of 0.4 N. After incubation at 4° C. for 1 hour, the suspension was centrifuged for 5 min at 15,000 rpm, and the supernatant was taken and mixed with 60 ml of acetone. After overnight incubation at −20° C., the coagulated material was collected by microcentrifugation, air-dried, and stored at […].
Assay for Histone Deacetylase Activity—For the standard assay, 10 μl of [^3H]acetyl-labeled histones was added to 90 μl of the enzyme fraction, and the mixture was incubated at 25° C. for 30 min. The reaction was stopped by addition of 10 μl of HCl. The released [^3H]acetic acid was extracted with 1 ml of ethyl acetate, and 0.9 ml of the solvent layer was taken into 10 ml of toluene scintillation solution for determination of radioactivity.

[3] = Solubility in solvents (physico-chemical properties); assay type: physicochemical; details: solvents in which soluble

Row | Inhibition (%) ([2]; 1 ng/ml) | Inhibition (%) ([2]; 10 ng/ml) | Inhibition (%) ([2]; 100 ng/ml) | Inhibition (%) ([2]; 1000 ng/ml) | Effect on histone deacetylase activity (in words) [2] | SMILES | Inhibition (%) ([1]; 4 ng/ml) | Inhibition (%) ([1]; 8 ng/ml) | Inhibition (%) ([1]; 16 ng/ml) | Inhibition (%) ([1]; 31 ng/ml) | Inhibition (%) ([1]; 63 ng/ml) | Inhibition (%) ([1]; 125 ng/ml) | Inhibition (%) ([1]; 250 ng/ml) | Inhibition (%) ([1]; 500 ng/ml) | Effect on murine lymphocyte blastogenesis (in words) ([1]; summary of Tables 2 and 3) | Solubility: Soluble [3]
1 | −13.1 | 33.7 | 74.6 | 94.6 | potently inhibited | CC(O)C(=O)CCCCCC1NC(=O)C2CCCN2C(=O)C(Cc2ccccc2)NC(=O)C(C)(C)NC1=O (centres unmarked) [FR235220] | −23.4 | −1.3 | 45.1 | 106.0 | 125.3 | 127.2 | 126.0 | 126.0 | suppressed murine lymphocyte blastogenesis induced by anti-CD3 antibody in a dose-dependent manner | 
2 | 11.4 | 36.5 | 74.1 | 91.7 | potently inhibited | CC1CC2C(=O)NC(CCCCCC(=O)C(C)O)C(=O)NC(C)(C)C(=O)NC(Cc3ccccc3)C(=O)N2C1 (centres unmarked) [WF27082 F] |  |  |  |  |  |  |  |  |  | methanol, chloroform, ethyl acetate, dimethyl sulfoxide

Row | SMILES | Inhibition (%) ([2]; 1 ng/ml) | Inhibition (%) ([2]; 10 ng/ml) | Inhibition (%) ([2]; 100 ng/ml) | Inhibition (%) ([2]; 1000 ng/ml) | Effect on histone deacetylase activity (in words) [2] | Inhibition (%) ([1]; 4 ng/ml) | Inhibition (%) ([1]; 8 ng/ml) | Inhibition (%) ([1]; 16 ng/ml) | Inhibition (%) ([1]; 31 ng/ml) | Inhibition (%) ([1]; 63 ng/ml) | Inhibition (%) ([1]; 125 ng/ml) | Inhibition (%) ([1]; 250 ng/ml) | Inhibition (%) ([1]; 500 ng/ml) | Effect on murine lymphocyte blastogenesis (in words) ([1]; summary of Tables 2 and 3) | Solubility: Soluble [3]
3 | CCC1(C)NC(=O)C(CCCCCC(=O)C(C)O)NC(=O)C2CCCN2C(=O)C(Cc2ccccc2)NC1=O (centres unmarked) [WF27082 E] | 11.1 | 57.6 | 88.5 | 104.9 | potently inhibited |  |  |  |  |  |  |  |  |  | methanol, chloroform, ethyl acetate, dimethyl sulfoxide
